Laboratory results taken from ChEMBL document CHEMBL4265965, “Dichloroacetophenones targeting at pyruvate dehydrogenase kinase 1 with improved selectivity and antiproliferative activity: Synthesis and structure-activity relationships” (Bioorg Med Chem Lett, 2018).
Calls of active or inactive are those of the source. No cut-off for these calls is given here.

Tests used:
[1] = molecular target: T1, [Pyruvate dehydrogenase (acetyl-transferring)] kinase isozyme 1, mitochondrial (Homo sapiens, UniProt Q15118); test: Binding affinity to recombinant human N-terminal His6/Sumo-tagged PDK1 (29 to 436 residues) expressed in Escherichia coli BL21
T1 sequence (Q15118 whole entry, the tested form may be a part): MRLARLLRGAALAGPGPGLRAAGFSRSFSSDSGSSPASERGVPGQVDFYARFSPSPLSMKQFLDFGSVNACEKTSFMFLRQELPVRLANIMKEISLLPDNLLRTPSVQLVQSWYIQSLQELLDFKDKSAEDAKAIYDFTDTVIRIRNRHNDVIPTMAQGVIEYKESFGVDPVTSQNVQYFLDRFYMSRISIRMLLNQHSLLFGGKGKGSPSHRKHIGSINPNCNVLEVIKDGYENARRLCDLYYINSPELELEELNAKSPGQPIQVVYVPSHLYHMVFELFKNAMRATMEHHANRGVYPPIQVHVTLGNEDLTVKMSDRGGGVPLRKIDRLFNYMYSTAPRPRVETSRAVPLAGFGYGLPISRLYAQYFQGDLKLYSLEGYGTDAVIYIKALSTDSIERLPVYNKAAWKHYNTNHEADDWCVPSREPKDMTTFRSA

[2] = system: A549; test: Antiproliferative activity against human A549 cells assessed as inhibition of cell proliferation at 6 uM after 72 hrs by MTT assay relative to control; assay type: functional; details: A549, 72 h
[3] = molecular target: RAC-alpha serine/threonine-protein kinase (Homo sapiens, UniProt P31749); test: Inhibition of AKT phosphorylation in human NCI-H1975 cells at 10 uM after 24 hrs by Western blot analysis; assay type: cell-based; details: nci-h1975, 24 h
Chain of RAC-alpha serine/threonine-protein kinase (P31749 whole entry): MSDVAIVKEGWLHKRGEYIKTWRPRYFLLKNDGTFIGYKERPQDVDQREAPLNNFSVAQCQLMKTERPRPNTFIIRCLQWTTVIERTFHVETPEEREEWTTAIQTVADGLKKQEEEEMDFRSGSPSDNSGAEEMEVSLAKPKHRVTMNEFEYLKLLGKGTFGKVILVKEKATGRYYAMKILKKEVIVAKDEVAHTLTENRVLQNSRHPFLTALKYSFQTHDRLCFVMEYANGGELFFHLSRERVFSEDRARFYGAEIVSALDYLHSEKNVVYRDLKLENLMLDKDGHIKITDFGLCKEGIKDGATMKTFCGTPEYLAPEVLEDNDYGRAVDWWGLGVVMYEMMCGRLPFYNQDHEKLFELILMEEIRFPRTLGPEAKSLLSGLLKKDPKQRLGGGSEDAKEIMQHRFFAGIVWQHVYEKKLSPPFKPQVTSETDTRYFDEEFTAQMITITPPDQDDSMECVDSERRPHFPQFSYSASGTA

[4] = system: NCI-H1975; test: Antiproliferative activity against human NCI-H1975 cells assessed as inhibition of cell proliferation at 2 uM after 72 hrs by MTT assay relative to control; assay type: functional; details: NCI-H1975, 72 h
[5] = molecular target: T1, [Pyruvate dehydrogenase (acetyl-transferring)] kinase isozyme 1, mitochondrial; test: Inhibition of PDK1 in human NCI-H1975 cells assessed as switch of pyruvate metabolism from lactate production to oxidative phosphorylation by measuring increase in basal oxygen consumption rate at 10 uM incubated for 4 hrs followed by FCCP addition for 1 hr measured for 16 mins; assay type: cell-based
[6] = molecular target: T1, [Pyruvate dehydrogenase (acetyl-transferring)] kinase isozyme 1, mitochondrial; test: Inhibition of PDK1 in human NCI-H1975 cells assessed as switch of pyruvate metabolism from lactate production to oxidative phosphorylation by measuring increase in basal oxygen consumption rate at 10 uM incubated for 4 hrs measured for 16 mins; assay type: cell-based
[7] = system: NCI-H1650; test: Antiproliferative activity against human NCI-H1650 cells assessed as inhibition of cell proliferation at 2 uM after 72 hrs by MTT assay relative to control; assay type: functional; details: NCI-H1650, 72 h
[8] = molecular target: T1, [Pyruvate dehydrogenase (acetyl-transferring)] kinase isozyme 1, mitochondrial; test: Inhibition of PDK1 in human NCI-H1975 cells assessed as switch of pyruvate metabolism from lactate production to oxidative phosphorylation by measuring decrease in extracellular acidification rate at 10 uM pretreated for 4 hrs followed by glucose addition for 1 hr measured for 16 mins; assay type: cell-based
[9] = system: NCI-H1650; test: Antiproliferative activity against human NCI-H1650 cells assessed as inhibition of cell proliferation at 12 uM after 72 hrs by MTT assay relative to control; assay type: functional; details: NCI-H1650, 72 h
[10] = molecular target: Epidermal growth factor receptor (Homo sapiens, UniProt P00533); test: Inhibition of EGFR phosphorylation in human NCI-H1975 cells at 10 uM after 24 hrs by Western blot analysis; assay type: cell-based; details: nci-h1975, 24 h
Chain of Epidermal growth factor receptor (P00533 whole entry): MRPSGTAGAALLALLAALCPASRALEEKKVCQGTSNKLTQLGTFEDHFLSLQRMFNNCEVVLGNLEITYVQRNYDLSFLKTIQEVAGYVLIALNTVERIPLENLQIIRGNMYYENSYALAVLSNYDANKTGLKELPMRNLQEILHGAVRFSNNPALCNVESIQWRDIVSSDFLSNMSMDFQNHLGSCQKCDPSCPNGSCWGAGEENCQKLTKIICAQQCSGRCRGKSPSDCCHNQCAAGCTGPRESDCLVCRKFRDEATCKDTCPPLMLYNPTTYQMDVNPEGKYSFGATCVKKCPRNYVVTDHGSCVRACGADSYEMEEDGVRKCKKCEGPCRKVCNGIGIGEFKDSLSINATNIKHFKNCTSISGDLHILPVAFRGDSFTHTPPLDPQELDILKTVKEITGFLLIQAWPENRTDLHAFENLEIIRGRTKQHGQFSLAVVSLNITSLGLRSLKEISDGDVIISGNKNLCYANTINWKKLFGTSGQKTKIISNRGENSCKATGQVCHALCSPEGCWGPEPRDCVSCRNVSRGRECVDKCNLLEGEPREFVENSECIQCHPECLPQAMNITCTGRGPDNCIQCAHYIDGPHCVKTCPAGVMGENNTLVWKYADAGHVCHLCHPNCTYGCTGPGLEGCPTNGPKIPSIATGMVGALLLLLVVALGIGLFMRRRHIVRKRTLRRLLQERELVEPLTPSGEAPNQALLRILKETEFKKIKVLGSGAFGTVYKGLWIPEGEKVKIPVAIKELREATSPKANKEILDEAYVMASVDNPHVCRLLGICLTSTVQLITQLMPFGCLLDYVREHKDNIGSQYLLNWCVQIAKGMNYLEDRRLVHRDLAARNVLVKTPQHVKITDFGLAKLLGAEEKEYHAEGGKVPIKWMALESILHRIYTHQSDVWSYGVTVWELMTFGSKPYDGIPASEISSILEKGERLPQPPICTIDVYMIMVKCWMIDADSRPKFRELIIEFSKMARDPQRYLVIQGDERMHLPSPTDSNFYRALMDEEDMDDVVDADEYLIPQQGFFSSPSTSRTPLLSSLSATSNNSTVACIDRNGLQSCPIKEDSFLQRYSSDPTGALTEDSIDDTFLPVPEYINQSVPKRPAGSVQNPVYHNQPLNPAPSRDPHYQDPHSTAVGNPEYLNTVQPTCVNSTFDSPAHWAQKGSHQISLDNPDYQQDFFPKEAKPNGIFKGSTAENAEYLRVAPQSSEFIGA

[11] = Inhibition of ERK phosphorylation in human NCI-H1975 cells at 10 uM after 24 hrs by Western blot analysis; assay type: cell-based; details: nci-h1975, 24 h
[12] = system: NCI-H1975; test: Antiproliferative activity against human NCI-H1975 cells assessed as inhibition of cell proliferation after 72 hrs by MTT assay; assay type: functional, cell-based; details: NCI-H1975, 72 h
[13] = system: A549; test: Antiproliferative activity against human A549 cells assessed as inhibition of cell proliferation at 12 uM after 72 hrs by MTT assay relative to control; assay type: functional; details: A549, 72 h
[14] = system: NCI-H1975; test: Antiproliferative activity against human NCI-H1975 cells assessed as inhibition of cell proliferation at 12 uM after 72 hrs by MTT assay relative to control; assay type: functional; details: NCI-H1975, 72 h
[15] = molecular target: T1, [Pyruvate dehydrogenase (acetyl-transferring)] kinase isozyme 1, mitochondrial; test: Inhibition of PDK1 in human NCI-H1975 cells assessed as switch of pyruvate metabolism from lactate production to oxidative phosphorylation by measuring increase in basal oxygen consumption rate at 10 uM incubated for 4 hrs followed by antimycinA addition for 1 hr measured for 16 mins; assay type: cell-based
[16] = system: NCI-H1975; test: Antiproliferative activity against human NCI-H1975 cells assessed as inhibition of cell proliferation at 6 uM after 72 hrs by MTT assay relative to control; assay type: functional; details: NCI-H1975, 72 h
[17] = molecular target: T1, [Pyruvate dehydrogenase (acetyl-transferring)] kinase isozyme 1, mitochondrial; test: Inhibition of recombinant human N-terminal His6/Sumo-tagged PDK1 (29 to 436 residues) expressed in Escherichia coli BL21 at 1 uM by kinase-glo luminescence assay relative to control
[18] = system: NCI-H1650; test: Antiproliferative activity against human NCI-H1650 cells assessed as inhibition of cell proliferation at 6 uM after 72 hrs by MTT assay relative to control; assay type: functional; details: NCI-H1650, 72 h
[19] = molecular target: T1, [Pyruvate dehydrogenase (acetyl-transferring)] kinase isozyme 1, mitochondrial; test: Inhibition of PDK1 in human NCI-H1975 cells assessed as switch of pyruvate metabolism from lactate production to oxidative phosphorylation by measuring decrease in extracellular acidification rate at 10 uM pretreated for 4 hrs followed by 2DG addition for 1 hr measured for 16 mins; assay type: cell-based
[20] = system: A549; test: Antiproliferative activity against human A549 cells assessed as inhibition of cell proliferation at 2 uM after 72 hrs by MTT assay relative to control; assay type: functional; details: A549, 72 h
[21] = molecular target: T1, [Pyruvate dehydrogenase (acetyl-transferring)] kinase isozyme 1, mitochondrial; test: Inhibition of PDK1 in human NCI-H1975 cells assessed as switch of pyruvate metabolism from lactate production to oxidative phosphorylation by measuring increase in basal oxygen consumption rate at 10 uM incubated for 4 hrs followed by oligomycin addition for 1 hr measured for 16 mins; assay type: cell-based
[22] = molecular target: T1, [Pyruvate dehydrogenase (acetyl-transferring)] kinase isozyme 1, mitochondrial; test: Inhibition of PDK1 in human NCI-H1975 cells assessed as switch of pyruvate metabolism from lactate production to oxidative phosphorylation by measuring decrease in extracellular acidification rate at 10 uM pretreated for 4 hrs followed by oligomycin addition for 1 hr measured for 16 mins; assay type: cell-based
[23] = molecular target: T1, [Pyruvate dehydrogenase (acetyl-transferring)] kinase isozyme 1, mitochondrial; test: Inhibition of PDK1 in human NCI-H1975 cells assessed as switch of pyruvate metabolism from lactate production to oxidative phosphorylation by measuring increase in proton leak at 5 uM incubated for 4 hrs followed by oligomycin addition for 1 hr measured for 16 mins; assay type: cell-based
[24] = molecular target: T1, [Pyruvate dehydrogenase (acetyl-transferring)] kinase isozyme 1, mitochondrial; test: Inhibition of PDK1 in human NCI-H1975 cells assessed as switch of pyruvate metabolism from lactate production to oxidative phosphorylation by measuring increase in basal oxygen consumption rate at 2.5 to 5 uM incubated for 4 hrs measured for 16 mins; assay type: cell-based
[25] = molecular target: T1, [Pyruvate dehydrogenase (acetyl-transferring)] kinase isozyme 1, mitochondrial; test: Inhibition of PDK1 in human NCI-H1975 cells assessed as switch of pyruvate metabolism from lactate production to oxidative phosphorylation by measuring increase in maximum respiration at 5 uM incubated for 4 hrs followed by FCCP addition for 1 hr measured for 16 mins; assay type: cell-based
[26] = molecular target: T1, [Pyruvate dehydrogenase (acetyl-transferring)] kinase isozyme 1, mitochondrial; test: Inhibition of PDK1 in human NCI-H1975 cells assessed as switch of pyruvate metabolism from lactate production to oxidative phosphorylation by measuring increase in ATP production at 5 uM incubated for 4 hrs followed by oligomycin addition for 1 hr measured for 16 mins; assay type: cell-based
[27] = organism: Sus scrofa; test: Inhibition of porcine PDK1 assessed as activation of pyruvate dehydrogenase complex at 1 uM measured after 3 mins
[28] = molecular target: T1, [Pyruvate dehydrogenase (acetyl-transferring)] kinase isozyme 1, mitochondrial; test: Inhibition of PDK1 in human NCI-H1975 cells assessed as reduction in pyruvate dehydrogenase phosphorylation at 10 uM after 24 hrs by Western blot analysis; assay type: cell-based

Row | SMILES | Kd [1] | inhibition at 6 µM [2] | inhibition (INH) [3] | inhibition at 2 µM [4] | inhibition [5] | inhibition [6] | inhibition at 2 µM [7] | inhibition [8] | inhibition at 12 µM [9] | inhibition (INH) [10] | inhibition (INH) [11] | IC50 [12] | inhibition at 12 µM [13] | inhibition at 12 µM [14] | inhibition [15] | inhibition at 6 µM [16] | inhibition [17] | inhibition at 6 µM [18] | inhibition [19] | inhibition at 2 µM [20] | also measured
1 | CC(C)c1ccc(C(=O)C(Cl)Cl)cc1[N+](=O)[O-] | 970 nM | 75.9% | Not Active | 59.8% | Active | Active | 36.4% | Active | 100% | Not Active | Not Active | 1590 nM | 96.5% | 99.5% | inactive | 95% | 75.1% | 90% | Active | 22.7% | inhibition [21]: Active; inhibition [22]: Active
2 | CC(C)Oc1ccc(C(=O)C(Cl)Cl)cc1[N+](=O)[O-] | 580 nM | 92.5% | Not Active | 65.5% | Active | Active | 48.6% | Active | 99.5% | Not Active | Not Active | 1260 nM | 99.7% | 99.5% | inactive | 99.1% | 84.3% | 95.9% | Active | 27.7% | inhibition [23]: Active; inhibition [24]: Active; inhibition [25]: Active; inhibition [26]: Active; inhibition [27]: Active; inhibition [21]: Active; inhibition [22]: Active
3 | COc1ccc(C(=O)C(Cl)Cl)cc1Cl |  | 56.7% |  | 51.7% |  |  | 36.5% |  | 98.7% |  |  | 2000 nM | 88.4% | 99.4% |  | 95.8% | 47.1% | 78.5% |  | 17% | inhibition [28]: Active
